What was measured:
Assay in all cases: whole plant or invertebrate
Assay type in all cases: in vivo
[1] = tested on: diamondback moth (Plutella xylostella); conditions: for mortality at 10 ppm: rate 10 ppm; for mortality at 0.08 ppm: rate 0.08 ppm; for mortality at 0.4 ppm: rate 0.4 ppm; for mortality at 2 ppm: rate 2 ppm
Experimental: (§1) The pest control protection afforded by the mixtures or compositions is not limited, however, to these species. The analysis of synergism or antagonism between the mixtures or compositions was determined using Colby's equation. The average % mortality data for the test compounds alone were inserted into the Colby's equation. If the observed average % mortality was higher than “p”, the expected % mortality, the mixture or composition had synergistic effects. If the observed average % mortality was equal to or lower than the expected mortality, the mixture or composition either had no synergistic effect or an antagonistic effect. In these tests, Compound 1 is the compound of Formula 1.
For evaluating control of diamondback moth (Plutella xylostella), cabbage (var. Stonehead) plants were grown in Metromix potting soil in 10-cm pots in aluminum trays to test size (28 days, 3-4 full leaves) the plants were sprayed to the point of runoff using the turntable sprayer as described in Test I. Test compounds were formulated and sprayed on test plants as described for Test I. After drying for 2 hours, the treated leaves were excised and infested with one cabbage looper per cell and covered. The test units were placed on trays and put in a growth chamber at 25° C. and 60% relative humidity for 4 days.

[2] = tested on: western flower thrip (Frankliniella occidentalis Pergande)
Experimental: as §1
(§2) Test compounds were formulated using a solution containing 10% acetone, 90% water and 300 ppm X-77® Spreader Lo-Foam Formula non-ionic surfactant containing alkylarylpolyoxyethylene, free fatty acids, glycols and isopropanol (Loveland Industries, Inc.) to provide the desired concentration in ppm. Formulated test solutions were then applied in 1 mL volumes through a SUJ2 atomizer nozzle with ⅛ JJ custom body (Spraying Systems Co.) positioned 1.27 cm (0.5 inches) above the top of each test unit.
For evaluating control of the western flower thrip (Frankliniella occidentalis Pergande) through contact and/or systemic means, each test unit consisted of a small open container with a 5- to 7-day-old bean (var. Soleil) plant inside.
Test solutions were formulated and sprayed with 3 replications as described for Test A. After spraying, the test units were allowed to dry for 1 hour, 22 to 27 adult thrips were added to each unit and then a black, screened cap was placed on top. The test units were held for 7 days at 25° C. and 45-55% relative humidity.

[3] = tested on: silverleaf whitefly (Bemisia argentifolii Bellows and Perring); conditions: for % mortality (obs): Table 2B, compound alone
Experimental: as §1
For evaluating control of silverleaf whitefly (Bemisia argentifolii Bellows and Perring) through contact and/or systemic means, each test unit consisted of a small open container with a 12- to 14-day-old cotton plant inside. This was pre-infested by placing test units into cages infested with adult whiteflies so that oviposition on the cotton leaves could occur. The adults were removed from the plants with an air-blast nozzle, and the test units were capped. The test units were then stored 2 to 3 days before spraying.
as §2
The results for all experimental compositions in this test were replicated three times. After spraying of the formulated test composition, each test unit was allowed to dry for 1 hour and the cap removed. The test units were held for 13 days in a growth chamber at 28° C. and 50-70% relative humidity.

[4] = tested on: green peach aphid (Myzus persicae Sulzer)
Experimental: as §1, §2
(§3) For evaluating control of green peach aphid (Myzus persicae Sulzer) through contact and/or systemic means, each test unit consisted of a small open container with a 12- to 15-day-old radish plant inside. This was pre-infested by placing on a leaf of the test plant 30 to 40 aphids on a piece of leaf excised from a culture plant (cut-leaf method). The larvae moved onto the test plant as the leaf piece desiccated. After pre-infestation, the soil of the test unit was covered with a layer of sand.
(§4) Test compounds were formulated and sprayed as described in Test A, replicated three times. After spraying of the formulated test compound, each test unit was allowed to dry for 1 hour and then a black, screened cap was placed on top. The test units were held for 6 days in a growth chamber at 19-21° C. and 50-70% relative humidity.

[5] = tested on: cotton melon aphid (Aphis gossypii Glover)
Experimental: as §1, §2
as §3, with “cotton melon” for “green peach”, “(Aphis gossypii Glover)” for “(Myzus persicae Sulzer)”, “6-” for “12-”, “7-day-old cotton” for “15-day-old radish”
as §4, with “described for” for “described in”, “Test A. The applications were” for “Test A,”, “test compounds,” for “test compound,”

[6] = tested on: potato leafhopper (Empoasca fabae Harris); conditions: Compound 1 0 ppm
Experimental: as §1, §2
For evaluating control of potato leafhopper (Empoasca fabae Harris) through contact and/or systemic means, each test unit consisted of a small open container with a 5- to 6-day-old Longio bean plant (primary leaves emerged) inside. White sand was added to the top of the soil, and one of the primary leaves was excised prior to application. Test compounds were formulated and sprayed with 3 replications as described for Test A. After spraying, the test units were allowed to dry for 1 hour before they were infested with 5 potato leafhoppers (18- to 21-day-old adults). A black, screened cap was placed on the top of each container. The test units were held for 6 days in a growth chamber at 19-21° C. and 50-70% relative humidity.

[7] = Plutella xylostella, in Brassica oleracea, read-out: % mortality (obs)
[8] = Plutella xylostella, in Brassica oleracea, rate 1000 ppm, read-out: % mortality (obs)
[9] = Plutella xylostella, in Brassica oleracea, rate 100 ppm, read-out: % mortality (obs)
[10] = Plutella xylostella, in Brassica oleracea, rate 1 ppm, read-out: % mortality (obs)

CNC(=O)O/N=C(\SC)C(=O)N(C)C [Oxamyl, oxamyl]
% mortality (obs) ([1]; rate 1 ppm): 60%

COC(=O)N(C(=O)N1CO[C@@]2(C(=O)OC)Cc3cc(Cl)ccc3C2=N1)c1ccc(OC(F)(F)F)cc1 [Indoxacarb, indoxacarb]
% mortality (obs) ([1]; rate 0.02 ppm): 80% | % mortality (obs) ([1]; rate 0.05 ppm): 40%

CC(C)N1C(=O)N(c2ccccc2)CS/C1=N\C(C)(C)C [Buprofezin, buprofezin]
mortality at 10 ppm [1, 7]: 30% | mortality at 1000 ppm [1, 8]: 60%

spinosad
% mortality ([1]; rate 10): 100% | % mortality ([1]; rate 100): 90% | % mortality ([1]; rate 1000): 100%

CC1(C)CNC(=NN=C(/C=C/c2ccc(C(F)(F)F)cc2)/C=C/c2ccc(C(F)(F)F)cc2)NC1 [Hydramethylnon, hydramethylnon]
mortality at 0.01 ppm ([1]; Plutella xylostella, in Brassica oleracea, rate 0.01 ppm, read-out: % mortality (obs)): 70% | mortality at 0.05 ppm ([1]; Plutella xylostella, in Brassica oleracea, rate 0.05 ppm, read-out: % mortality (obs)): 50% | mortality at 0.2 ppm ([1]; Plutella xylostella, in Brassica oleracea, rate 0.2 ppm, read-out: % mortality (obs)): 60%

CCN(Cc1ccc(Cl)nc1)/C(=C/[N+](=O)[O-])NC [Nitenpyram, nitenpyram]
% mortality (obs) ([1]; rate 30 ppm): 90% | % mortality (obs) ([1]; rate 150 ppm): 90%

O=C(NC(=O)c1c(F)cccc1F)Nc1cc(Cl)c(OC(F)(F)C(F)C(F)(F)F)cc1Cl (stereo not drawn) [Lufenuron, lufenuron]
mortality at 0.08 ppm [1, 7]: 80% | mortality at 0.4 ppm [1, 7]: 80% | mortality at 2 ppm [1, 7]: 90%

CCOC(=O)NCCOc1ccc(Oc2ccccc2)cc1 [Fenoxycarb, fenoxycarb]
mortality at 10 ppm [1, 7]: 90% | mortality at 100 ppm [1, 9]: 90% | mortality at 1000 ppm [1, 8]: 90%

N#CCNC(=O)c1cnccc1C(F)(F)F [Flonicamid, flonicamid]
% mortality ([1]; rate 1): 0% | % mortality ([1]; rate 15): 60% | % mortality ([1]; rate 1000): 30%

O=C(NC(=O)c1c(F)cccc1F)Nc1cc(Cl)c(OC(F)(F)C(F)F)c(Cl)c1 [Hexaflumuron, hexaflumuron]
mortality at 10 ppm ([2]; Frankliniella occidentalis, rate 10 ppm, read-out: % mortality (obs)): 20% | mortality at 3000 ppm ([2]; Frankliniella occidentalis, rate 3000 ppm, read-out: % mortality (obs)): 60% | mortality at 0.5 ppm ([1]; Plutella xylostella, in Brassica oleracea, rate 0.5 ppm, read-out: % mortality (obs)): 70% | mortality at 1 ppm [1, 10]: 30% | mortality at 2 ppm [1, 7]: 70%

CC1(C)[C@H](C(=O)O[C@H](C#N)c2cccc(Oc3ccccc3)c2)[C@@H]1C=C(Br)Br [Deltamethrin, deltamethrin]
mortality at 0.1 ppm ([1]; Plutella xylostella, in Brassica oleracea, rate 0.1 ppm, read-out: % mortality (obs)): 90% | mortality at 0.3 ppm ([1]; Plutella xylostella, in Brassica oleracea, rate 0.3 ppm, read-out: % mortality (obs)): 90% | mortality at 1 ppm [1, 10]: 90%

pyridaben
% mortality ([1]; rate 100): 100% | % mortality ([1]; rate 150): 80% | % mortality ([1]; rate 200): 100%

CCc1ccc(C(=O)NN(C(=O)c2cc(C)cc(C)c2)C(C)(C)C)cc1 [Tebufenozide, tebufenozide]
mortality at 150 ppm ([1]; Plutella xylostella, in Brassica oleracea, rate 150 ppm, read-out: % mortality (obs)): 90% | mortality at 200 ppm ([1]; Plutella xylostella, in Brassica oleracea, rate 200 ppm, read-out: % mortality (obs)): 90% | mortality at 300 ppm ([1]; Plutella xylostella, in Brassica oleracea, rate 300 ppm, read-out: % mortality (obs)): 90%

CS/C(C)=N\OC(=O)N(C)SN(C)C(=O)O/N=C(\C)SC [Thiodicarb, thiodicarb]
% mortality (obs) ([1]; rate 100 ppm): 90% | % mortality (obs) ([1]; rate 1000 ppm): 90% | % mortality (obs) ([1]; rate 3000 ppm): 90%

thiamethoxam
% Mortality (observed) ([3]; Thiamethoxam 15 ppm alone): 53% | % Mortality (observed) ([3]; Thiamethoxam 26 ppm alone): 65% | % Mortality (observed) ([2]; Thiamethoxam 1 ppm alone): 33% | % Mortality (observed) ([2]; Thiamethoxam 5.5 ppm alone): 43% | % Mortality (observed) ([2]; Thiamethoxam 29 ppm alone): 43% | % Mortality (observed) ([4]; 0.2 ppm): 23% | % Mortality (observed) ([4]; 0.3 ppm): 23% | % Mortality (observed) ([4]; 0.5 ppm): 93% | % mortality ([1]; rate 30): 90% | % mortality ([1]; rate 40): 100% | % mortality ([1]; rate 50): 100% | % Mortality (observed) ([5]; Thiamethoxam 0.5 ppm): 22% | % Mortality (observed) ([5]; Thiamethoxam 0.8 ppm): 83% | % Mortality (observed) ([5]; Thiamethoxam 1 ppm): 91%

O=[N+]([O-])NC1=NCCN1Cc1ccc(Cl)nc1 [Imidacloprid, imidacloprid]
% Mortality (observed) ([6]; Imidacloprid 0.4 ppm): 20% | % Mortality (observed) ([6]; Imidacloprid 1.4 ppm): 0% | % Mortality (observed) ([6]; Imidacloprid 4.6 ppm): 20% | mortality at 0.3 ppm ([4]; Myzus persicae, in Raphanus sativus, read-out: % Mortality (observed)): 50%

CCOP(=S)(OCC)Oc1nc(Cl)c(Cl)cc1Cl [Chlorpyrifos, chlorpyrifos]
mortality at 10 ppm [1, 7]: 80% | mortality at 100 ppm [1, 9]: 40% | mortality at 1000 ppm [1, 8]: 50%

Nc1nc(N)nc(NC2CC2)n1 [Cyromazine, cyromazine]
mortality at 20 ppm ([1]; Plutella xylostella, in Brassica oleracea, rate 20 ppm, read-out: % mortality (obs)): 60% | mortality at 40 ppm ([1]; Plutella xylostella, in Brassica oleracea, rate 40 ppm, read-out: % mortality (obs)): 90% | mortality at 60 ppm ([1]; Plutella xylostella, in Brassica oleracea, rate 60 ppm, read-out: % mortality (obs)): 80%

COc1cccc(C(=O)NN(C(=O)c2cc(C)cc(C)c2)C(C)(C)C)c1C [Methoxyfenozide, methoxyfenozide]
mortality at 0.08 ppm [1, 7]: 90% | mortality at 0.4 ppm [1, 7]: 90% | mortality at 2 ppm [1, 7]: 90% | mortality at 5 ppm ([5]; Aphis gossypii, rate 5 ppm, read-out: % mortality (obs)): 22% | mortality at 50 ppm ([5]; Aphis gossypii, rate 50 ppm, read-out: % mortality (obs)): 20% | mortality at 500 ppm ([5]; Aphis gossypii, rate 500 ppm, read-out: % mortality (obs)): 26%

dieldrin
% mortality ([1]; rate 2): 90% | % mortality ([1]; rate 2.5): 100% | % mortality ([1]; rate 3): 100%

Cc1ccc(/N=C/N(C)/C=N/c2ccc(C)cc2C)c(C)c1 [Amitraz, amitraz]
% mortality ([1]; rate 10): 70% | % mortality ([1]; rate 100): 20% | % mortality ([1]; rate 1000): 50%

CNC(=O)c1cc(C#N)cc(C)c1NC(=O)c1cc(Br)nn1-c1ncccc1Cl [Compund 1]
% mortality (obs) ([3]; rate 7 ppm): 30% | % mortality (obs) ([3]; rate 9 ppm): 53% | % mortality (obs) ([3]; rate 12 ppm): 71%

CNC(=O)ON=C(C)SC [Methomyl, methomyl]
% mortality ([1]; rate 30): 80% | % mortality ([1]; rate 40): 90% | % mortality ([1]; rate 50): 80%
